Reference: US20170058349A1, “METHODS FOR MANAGING CARE OF PATIENTS PREDISPOSED TO PROGRESSIVE MITRAL VALVE DISEASES” (The Children's Hospital of Philadelphia, priority 2014, published 2017)

What was measured:
human MVICs = experiment: MVIC activation in vitro (SMA expression after 5HT stimulation); assay type: cell-based; details: for SMA expression on 5HT stimulation: 5HT 10 nM; for VIC activation associated with 5HTR activation: human MVICs in vitro, antagonists of 5HTR2A, 2B and SERT
Procedure: MVICs isolated from healthy controls and patients with LL, LS, SS gene polymorphisms were treated with […] 5HT for 6 days in the presence or absence of a combination of 5HT2A antagonist Ketanserin, 5HT2B antagonist SDZ, and SERT antagonist Fluoxetine. RNA was isolated and tested for SMA expression as a marker of MVIC activation.
MVICs were isolated form patients with LL, LS, or SS genotype and controls (N=5/group) and exposed to 5HT stimulation (10 nM) to measure MVICs activation by alpha smooth muscle actin (SMA) as previously described by Rachana et al. (Journal of cellular physiology 227(6): 2595-604, November 2011. PMCID: PMC3288540) and Poggio et al. (Cardiovascular research 98(3): 402-10, June 2013. PMCID: PMC3656614). A combination of 5HT2A, 2B and SERT antagonists was used to inhibit 5HT stimulation in the three different genotypes (LL, LS, SS) with 10 μM ketanserin, 1 μM SDZ SER-082, and 1 μM Fluoxitine. (FIG. 4). RNA extract was collected to detect SMA expression.

C57BL/6J mice = experiment: Chronic angiotensin II infusion, remodeling of the mitral valve tissue in mice; assay type: in vivo; details: 28 days chronic infusion; for ECM remodeling of MV leaflets / 5HTR2A, 5HTR2B and SERT expression in MV leaflets: AngII vs. saline; for ECM remodeling of MV leaflets: histology; for 5HTR2A, 5HTR2B and SERT expression in MV leaflets: immunohistochemistry
From the text: (A) Representative H&E staining of cross section of mice hearts harvested 28 days after saline or AngII chronic infusion. (B) Modified Movat Pentachrome staining of MV leaflets harvested 28 days after saline or AngII chronic infusion (Magnification 10× and 43×). (C) and (D) Immunohistochemistry staining of murine MV leaflets using anti-5HTR2A and anti-5HTR2B antibodies, respectively.
We have recently reported that reactive oxygen species (ROS) accumulation is leading aortic VICs activation ex vivo and in vitro with results showing that adenoviral delivery of antioxidant enzymes ameliorates aortic VICs activation. We therefore used our murine model based on chronic AngII infusion to reproduce ROS accumulation in the cardiac tissue (Branchetti et al., Cardiovasc Res. 2013; 100(2):316-324) to test whether we could provoke MV remodeling.

NCCc1c[nH]c2ccc(O)cc12 [5HT, serotonin] was tested, and the “SMA expression on 5HT stimulation” value (human MVICs; MVICs from patients with LL genotype) was “significant upregulation of SMA” and the “SMA expression on 5HT stimulation” value (human MVICs; MVICs from patients with SS and LS genotype) was “not responsive”.
In the case of CNCCC(Oc1ccc(C(F)(F)F)cc1)c1ccccc1 (stereo not shown) [Fluoxetine], the “VIC activation associated with 5HTR activation” value (“VIC activation associated” below) (human MVICs) is reported as “partially abrogate this effect”.
For O=C(c1ccc(F)cc1)C1CCN(CCn2c(=O)[nH]c3ccccc3c2=O)CC1 [Ketanserin], the “VIC activation associated” value (human MVICs) was “partially abrogate this effect”.
CN1CC[C@@H]2CN3CCc4cccc(c43)[C@@H]2C1 [SDZ, SDZ SER-082] was tested, and the “VIC activation associated” value (human MVICs) was “partially abrogate this effect”.
With “Angiotensin II (DRVYIHPF; Angiotensin-2; UniProt P11859 25-32, looked up) [AngII, chronically infused to induce ROS accumulation and MV remodeling in mice]” the “mitral valve cusp thickness” value (C57BL/6J mice; AngII treated vs. saline infused mice, p<0.01) was “increased”, the “ECM remodeling of MV leaflets” value (C57BL/6J mice) was “significant rearrangement of the ECM” and the “ECM remodeling of MV leaflets” value (C57BL/6J mice; listed as Angiotensin II) was “ECM remodeling”. The “5HTR2A, 5HTR2B and SERT expression in MV leaflets” value (C57BL/6J mice) was “increased 5HTR2A and 2B and SERT” and the “5HTR2A, 5HTR2B and SERT expression in MV leaflets” value (C57BL/6J mice; listed as Angiotensin II) was “increased 5HTR-2B/SERT expressions”.
